Test results: patent US6875884B1, “Urea derivatives as inhibitors for CCR-3 receptor” (Kirin Beer Kabushiki Kaisha, priority 1999, dated 2005)

target: T1, CCR-3 (Homo sapiens, UniProt P51677); experiment: Inhibition of eotaxin-induced chemotaxis of CCR-3 transfectant cells (CCR3/U937); type: cell-based; design: expressed in transfected cells; host or cells: U937; conditions: U-937, compound 10 μM, eotaxin 1×10^−9 M, Table 3a
T1 sequence (P51677 1-355): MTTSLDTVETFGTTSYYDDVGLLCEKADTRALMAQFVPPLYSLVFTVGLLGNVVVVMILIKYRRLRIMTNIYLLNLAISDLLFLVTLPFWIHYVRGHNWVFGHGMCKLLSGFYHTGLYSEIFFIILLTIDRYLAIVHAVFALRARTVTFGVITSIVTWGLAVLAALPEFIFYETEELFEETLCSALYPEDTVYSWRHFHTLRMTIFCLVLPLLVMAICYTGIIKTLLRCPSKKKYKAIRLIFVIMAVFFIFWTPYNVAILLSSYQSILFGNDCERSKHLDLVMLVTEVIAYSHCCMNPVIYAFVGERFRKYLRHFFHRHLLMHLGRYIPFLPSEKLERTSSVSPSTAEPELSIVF
Description: The inhibitory activity of the compounds against eotaxin-induced chemotaxis was determined by measuring the inhibition of migration of CCR-3 transfectant cells (CCR3/U937), using a minor modification of the method described by Ohashi, H. et al., Int Arch Allergy Immunol. (1999) 118, 44-50. CCR-3 transfectant cells were grown in PRMI1640 medium containing 10% fetal calf serum (FCS) and Geneticin 418 (0.8 mg/ml). For the assay, CCR-3 transfectant cells were isolated and resuspended at 1×10^7 cells/ml in assay medium (RPMI 1640 medium containing 0.1% bovine serum albumin (BSA)). The chemotaxis assay was performed in a 24-well culture plate. Human eotaxin suspended in assay medium was added to the wells at 1×10^−9 M along with test compounds at various concentrations. For a positive control, eotaxin was added to the wells without a test compound, and for a negative control, neither eotaxin nor a test compound was added to the walls. Chemotaxicell (Kurabo Co., Ltd.) having 5 micrometers pore size were inserted into each well and 100 micro liters of CCR-3 transfectant cells suspension were added to the top chamber. The plates were incubated at 37° C. for 1 hour. After incubation, migrated cells in lower wells were diluted and counted by particle size distribution analyzer (CDP-500, Sysmex Co., Ltd.)

| inhibition at 10 µM [%] | SMILES |
| --- | --- |
| 96 | CCN(CCc1ccc(Cl)cc1)CC(O)CNC(=O)Nc1ccccc1 (centres unmarked) [Compound 163, N-phenylcarbamoyl-N′-[2-(4-chlorophenyl)ethyl]-N′-ethyl 2-hydroxy-1,3-diaminopropane] |
| 100 | O=C(O)CCCN(CCCNC(=S)Nc1ccc(Cl)cc1)C1CCCc2ccccc21 (centres unmarked) [Compound 164, 4-[[3-(4-chlorophenylthioureido)propyl](1,2,3,4-tetrahydro-1-naphthyl)amino]butanoic acid] |
| 100 | O=C(O)CCCN(CC(O)CNC(=O)Nc1ccc(Br)cc1)C1CCCc2ccccc21 (centres unmarked) [Compound 167, 4-[[3-(4-bromophenylureido)-2-hydroxypropyl](1,2,3,4-tetrahydro-1-naphthyl)amino]butanoic acid] |
| 100 | O=C(O)CCCN(CCCNC(=O)Nc1ccc(Br)cc1)C1CCc2ccccc21 (centres unmarked) [Compound 173, 4-[[3-(4-Bromophenylureido)propyl](1-indanyl)amino]butanoic acid] |
| 100 | O=C(O)CCCN(CCCNC(=S)Nc1ccc(Br)cc1)[C@@H]1CCc2ccccc21 [Compound 288, 4-[[3(4-Bromophenylthioureido)propyl][(1R)-1-indanyl]amino]butanoic acid] |
| 100 | O=C(O)CCCN(CCCNC(=S)Nc1ccc(Br)cc1)[C@@H]1CCCc2ccccc21 [Compound 290, 4-[[3(4-Bromophenylthioureido)propyl][(1R)-1,2,3,4-tetrahydro-1-naphthyl]amino]butanoic acid] |

| SMILES | inhibition at 10 µM [%] |
| --- | --- |
| CC(C)(C)OC(=O)[C@H](CCN(CCCC(=O)O)C1CCCc2ccccc21)NC(=O)Nc1ccc(Br)cc1 (stereo partly drawn) [Compound 165, 4[[(3S)-3-(4-bromophenylureido)-3-(tert-butoxycarbonyl)propyl](1,2,3,4-tetrahydro-1-naphthyl)amino]butanoic acid] | 100 |
| CC(C)NC(=O)[C@H](CCN(CCCC(=O)O)C1CCCc2ccccc21)NC(=O)Nc1ccc(Br)cc1 (stereo partly drawn) [Compound 286, 4-[[(3S)-3-(4-Bromophenylureido)-3-(isopropylcarbamoyl)propyl](1,2,3,4-tetrahydro-1-naphthyl)amino]butanoic acid] | 100 |

same assay, conditions: compound 10 μM, eotaxin 1×10^−9 M, Table 3a

| Chemotaxis Assay 10 μM (inhibition %) [%] | SMILES |
| --- | --- |
| 59 | CCN(CCNC(=O)Nc1ccc([N+](=O)[O-])cc1)CCc1ccc(Cl)cc1 [Compound 4] |
| 100 | CCN(CCCNC(=O)Nc1ccc(Cl)cc1)CCc1ccc(Cl)cc1 [Compound 6] |
| 100 | CCN(CCCNC(=O)Nc1ccccc1OC)CCc1ccc(Cl)cc1 [Compound 9] |
| 58 | COc1ccc(CN(CCCNC(=O)Nc2ccccc2)CCc2ccc(Cl)cc2)cc1 [Compound 18] |
| 82 | O=C(NCCCN(CCc1ccc(Cl)cc1)Cc1cccnc1)Nc1ccccc1 [Compound 23] |
| 88 | O=C(NCCCN(CCc1ccccc1)CCc1ccc(Cl)cc1)Nc1ccccc1 [Compound 25] |
| 97 | CN(CCCNC(=O)Nc1ccccc1)CCc1ccc(Cl)cc1 [Compound 27] |
| 78 | COC(=O)CCCN(CCCNC(=O)Nc1ccc(Br)cc1)Cc1cccs1 [Compound 39] |
| 50 | COC(=O)CCCN(CCCNC(=O)Nc1ccc(Br)cc1)CCc1ccc(OC)c(OC)c1 [Compound 43] |
| 54 | COC(=O)CCCN(CCNC(=O)Nc1ccc(Br)cc1)C1CCCc2ccccc21 (centres unmarked) [Compound 50] |
| 58 | O=C(O)CCCN(CCNC(=O)Nc1ccc(Br)cc1)C1CCCc2ccccc21 (centres unmarked) [Compound 81] |
| 100 | CCCCOC(=O)c1ccc(NC(=O)NCCCN(CCCC(=O)O)C2CCCc3ccccc32)cc1 (centres unmarked) [Compound 237] |
| 100 | O=C(O)CCCN(CCCNC(=S)Nc1ccc(Br)cc1)C1CCCc2ccccc21 (centres unmarked) [Compound 246] |
| 99 | O=C(O)CCCN(CCCNC(=S)Nc1cccc(Br)c1)C1CCCc2ccccc21 (centres unmarked) [Compound 247] |
| 100 | O=C(O)CCCN(CCCNC(=S)Nc1cccc(Cl)c1)C1CCCc2ccccc21 (centres unmarked) [Compound 248] |
| 100 | O=C(O)CCCN(CCCNC(=S)Nc1ccc(I)cc1)C1CCCc2ccccc21 (centres unmarked) [Compound 249] |
| 99 | Cc1ccc(NC(=S)NCCCN(CCCC(=O)O)C2CCCc3ccccc32)cc1 (centres unmarked) [Compound 250] |
| 100 | O=C(O)CCCN(CCCNC(=S)Nc1ccc(Cl)c(Cl)c1)C1CCCc2ccccc21 (centres unmarked) [Compound 251] |
| 100 | COC(=O)CCCN(CCCNC(=S)Nc1ccc(Br)cc1)C1CCCc2ccccc21 (centres unmarked) [Compound 252] |
| 74 | COC(=O)CCCN(CCCNC(=S)Nc1cccc(Br)c1)C1CCCc2ccccc21 (centres unmarked) [Compound 253] |
| 100 | COC(=O)CCCN(CCCNC(=S)Nc1ccc(I)cc1)C1CCCc2ccccc21 (centres unmarked) [Compound 255] |
| 100 | COC(=O)CCCN(CCCNC(=S)Nc1ccc(Cl)c(Cl)c1)C1CCCc2ccccc21 (centres unmarked) [Compound 256] |
| 100 | O=C(O)CCCN(CCCNC(=S)Nc1ccc(F)cc1)C1CCCc2ccccc21 (centres unmarked) [Compound 257] |
| 96 | O=C(O)CCCN(CCCNC(=O)Nc1cc(Cl)nc(Cl)c1)C1CCCc2ccccc21 (centres unmarked) [Compound 279] |
| 100 | COC(=O)CCCN(CC[C@H](NC(=O)Nc1ccc(Br)cc1)C(=O)OC(C)(C)C)C1CCCc2ccccc21 (some centres unmarked) [Compound 281] |
| 100 | COC(=O)CCCN(CC[C@H](NC(=O)Nc1ccc(Br)cc1)C(=O)NC(C)C)C1CCCc2ccccc21 (stereo partly drawn) [Compound 282, methyl 4-[[(3S)-3-(4-bromophenylureido)-3-(isopropylcarbamoyl)propyl](1,2,3,4-tetrahydro-1-naphthyl)amino]butylate] |
| 100 | COC(=O)CCCN(CC[C@H](NC(=O)Nc1ccc(Br)cc1)C(=O)NCc1ccccc1)C1CCCc2ccccc21 (stereo partly drawn) [Compound 283, Methyl 4-[[(3S)-3-(4-bromophenylureido)-3-(benzylcarbamoyl)propyl](1,2,3,4-tetrahydro-1-naphthyl)amino]butylate] |
| 100 | O=C(O)CCCN(CC[C@H](NC(=O)Nc1ccc(Br)cc1)C(=O)NCc1ccccc1)C1CCCc2ccccc21 (stereo partly drawn) [Compound 287, 4-[[(3S)-3-(4-Bromophenylureido)-3-(benzylcarbamoyl)propyl](1,2,3,4-tetrahydro-1-naphthyl)amino]butanoic acid] |
| 100 | CC(c1ccccc1)N(CCCNC(=S)Nc1ccc(Br)cc1)CCCC(=O)O (centres unmarked) [Compound 289] |

| SMILES | Chemotaxis Assay 10 μM (inhibition %) [%] |
| --- | --- |
| CC(C)(C)OC(=O)[C@H](CCN(CCCC(=O)O)C1CCCc2ccccc21)NC(=O)Nc1ccc(Br)cc1 (stereo partly drawn) [Compound 166, 4[[(3S)-3-(4-bromophenylureido)-3-(tert-butoxycarbonyl)propyl](1,2,3,4-tetrahydro-1-naphthyl)amino]butanoic acid] | 100 |
| CC(C)NC(=O)[C@H](CCN(CCCC(=O)O)C1CCCc2ccccc21)NC(=O)Nc1ccc(Br)cc1 (stereo partly drawn) [Compound 284, 4-[[(3S)-3-(4-Bromophenylureido)-3-(isopropylcarbamoyl)propyl](1,2,3,4-tetrahydro-1-naphthy1)amino]butanoic acid] | 95 |

same assay, conditions: compound 10 μM, eotaxin 1×10^−9 M, Table 3c

| Chemotaxis Assay 10 μM (inhibition %) [%] | SMILES |
| --- | --- |
| 100 | CC[N+](CC)(CCCNC(=S)Nc1ccc(Br)cc1)CCc1ccc(Cl)cc1.[I-] [Compound 335] |
| 100 | CC[N+](CC)(CCCNC(=S)Nc1ccccc1)CCc1ccc(Cl)cc1.[I-] [Compound 336] |
